Source: US20240158446A1, “CYCLIC COMPOUND HAVING SELECTIVE INHIBITORY ACTION ON KRAS OVER HRAS AND NRAS” (CHUGAI SEIYAKU KABUSHIKI KAISHA, priority 2021, published 2024)
pKd: −log10 of the molar value.

Legend:
[1] = target: GDP-bound NRAS wild-type protein (Homo sapiens, UniProt P01111); assay: Binding to NRAS by surface plasmon resonance (SPR), Single Cycle Kinetics; conditions: SPR; GDP-bound NRAS wild-type protein vs GDP-bound KRAS wild-type protein; KD ratio class
[2] = target: GDP-bound KRAS wild-type protein (Homo sapiens, UniProt P01116); assay: Binding to KRAS by surface plasmon resonance (SPR), Single Cycle Kinetics; conditions: SPR, Single Cycle Kinetics, 1:1 binding model; GDP-bound KRAS wild-type protein; read-out: KRAS KD
Sequence of GDP-bound KRAS wild-type protein (P01116 whole entry): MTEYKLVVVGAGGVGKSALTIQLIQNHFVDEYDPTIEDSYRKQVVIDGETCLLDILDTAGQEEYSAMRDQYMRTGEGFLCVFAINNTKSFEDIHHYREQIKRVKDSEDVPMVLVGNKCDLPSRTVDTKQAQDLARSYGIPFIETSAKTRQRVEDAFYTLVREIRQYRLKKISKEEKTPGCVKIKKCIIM

[3] = target: GDP-bound HRAS wild-type protein (Homo sapiens, UniProt P01112); assay: Binding to HRAS by surface plasmon resonance (SPR), Single Cycle Kinetics; conditions: SPR; GDP-bound HRAS wild-type protein vs GDP-bound KRAS wild-type protein; KD ratio class
Sequence of GDP-bound HRAS wild-type protein (P01112 whole entry): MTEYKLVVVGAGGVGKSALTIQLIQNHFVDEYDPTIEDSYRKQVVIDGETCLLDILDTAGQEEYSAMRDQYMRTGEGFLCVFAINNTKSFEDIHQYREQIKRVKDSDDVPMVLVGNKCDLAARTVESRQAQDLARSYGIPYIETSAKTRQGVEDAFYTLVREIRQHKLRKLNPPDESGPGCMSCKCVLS

Sequence of GDP-bound NRAS wild-type protein (P01111 whole entry): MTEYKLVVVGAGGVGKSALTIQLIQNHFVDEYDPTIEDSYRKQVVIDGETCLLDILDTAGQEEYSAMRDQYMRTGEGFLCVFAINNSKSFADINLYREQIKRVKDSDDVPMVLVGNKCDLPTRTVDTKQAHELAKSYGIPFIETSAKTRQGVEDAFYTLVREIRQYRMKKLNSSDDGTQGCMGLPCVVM

Row | pKd [2] | SMILES | NRAS/KRAS (ratio of KD value for NRAS to KD value for KRAS) [1] | HRAS/KRAS (ratio of KD value for HRAS to KD value for KRAS) [3]
1 | 10.41 | CC[C@H](C)[C@@H]1NC(=O)[C@H](CC2CC2)N(C)C(=O)C[C@@H](C(=O)N(C)C)N(C)C(=O)[C@H](C2CCCC2)N(C)C(=O)C2(CCC2)NC(=O)[C@@H]2CC(F)(F)CN2C(=O)[C@H](CCc2cc(F)c(C(F)(F)F)c(F)c2)NC(=O)CN(C)C(=O)[C@H](Cc2ccc(C(F)(F)F)cc2)N2CC/C=C\C[C@@H](C2=O)N(C)C(=O)CN(C)C1=O [PP1500, (2S,8S,14S,20S,23S,27S,30S,36S,38Z)-20-cyclopentyl-27-(cyclopropylmethyl)-8-[2-[3,5-difluoro-4-(trifluoromethyl)phenyl]ethyl]-12,12-difluoro-N,N,4,19,22,26,32,35-octamethyl-30-[(1S)-1-methylpropyl]-3,6,9,15,18,21,25,28,31,34,42-undecaoxo-2-[[4-(trifluoromethyl)phenyl]methyl]spiro[1,4,7,10,16,19,22,26,29,32,35-undecazatricyclo[34.5.1.0^10,14]dotetracont-38-ene-17,1′-cyclobutane]-23-carboxamide] | A (a compound having 10 or more and less than 20 is denoted as A) | A (a compound having 10 or more and less than 20 is denoted as A)
2 | 10.62 | CC[C@H](C)[C@@H]1NC(=O)[C@H](CC2CC2)N(C)C(=O)C[C@@H](C(=O)N(C)C)N(C)C(=O)[C@H](C2CCCC2)N(C)C(=O)C2(CC(C)(C)C2)NC(=O)[C@@H]2C[C@@H](F)CN2C(=O)[C@H](CCc2cc(F)c(C(F)(F)F)c(F)c2)NC(=O)CN(C)C(=O)[C@H](Cc2ccc(C(F)(F)F)cc2)N2CC/C=C\C[C@@H](C2=O)N(C)C(=O)CN(C)C1=O [PP1501, (2S,8S,12R,14S,20S,23S,27S,30S,36S,38Z)-20-cyclopentyl-27-(cyclopropylmethyl)-8-[2-[3,5-difluoro-4-(trifluoromethyl)phenyl]ethyl]-12-fluoro-N,N,3′,3′,4,19,22,26,32,35-decamethyl-30-[(1S)-1-methylpropyl]-3,6,9,15,18,21,25,28,31,34,42-undecaoxo-2-[[4-(trifluoromethyl)phenyl]methyl]spiro[1,4,7,10,16,19,22,26,29,32,35-undecazatricyclo[34.5.1.0^10,14]dotetracont-38-ene-17,1′-cyclobutane]-23-carboxamide] | A (a compound having 10 or more and less than 20 is denoted as A) | A (a compound having 10 or more and less than 20 is denoted as A)
3 | 10.42 | CC[C@H](C)[C@@H]1NC(=O)[C@H](CC2CCCC2)N(C)C(=O)C[C@@H](C(=O)N(C)C)N(C)C(=O)[C@H](C2CCCC2)N(C)C(=O)C2(CCC2)NC(=O)[C@@H]2C[C@@H](F)CN2C(=O)[C@H](CCc2cc(F)c(C(F)(F)F)c(F)c2)NC(=O)CN(C)C(=O)[C@H](Cc2ccc(C(F)(F)F)cc2)N2CC/C=C\C[C@@H](C2=O)N(C)C(=O)CN(C)C1=O [PP1502] | A (a compound having 10 or more and less than 20 is denoted as A) | A (a compound having 10 or more and less than 20 is denoted as A)
4 | 9.96 | CC[C@H](C)[C@@H]1NC(=O)[C@H](CC2CC2)N(C)C(=O)C[C@@H](C(=O)N2CCCC2)N(C)C(=O)[C@H](C2CCCC2)N(C)C(=O)C2(CCCC2)NC(=O)[C@@H]2C[C@@H](F)CN2C(=O)[C@H](CCc2cc(F)c(C(F)(F)F)c(F)c2)NC(=O)CN(C)C(=O)[C@H](Cc2ccc(C(F)(F)F)cc2)N2CC/C=C\C[C@@H](C2=O)N(C)C(=O)CN(C)C1=O [PP1503] | A (a compound having 10 or more and less than 20 is denoted as A) | A (a compound having 10 or more and less than 20 is denoted as A)
